Here are results for four compounds from US9266830B2, “Pesticidal arylpyrrolidines” (Bayer Intellectual Property GmbH, priority 2007, dated 2016).

Type in all cases: in vivo
The test system of one experiment is Lucilia cuprina larvae. The experiment is described as follows: Lucilia cuprina test (larvae in minced horse meat). The note with it: Lucilia cuprina, 48 h, read-out: activity (mortality in %). As to the method:
(§1) Solvent: dimethyl sulfoxide
To produce a suitable preparation of active compound, 10 mg of active compound are dissolved in 0.5 ml solvent, and the concentrate is diluted with water to the desired concentration. Approximately 20-30 (Lucilia cuprina larvae) are transferred into a test tube containing 1 cm^3 of minced horse meat and 0.5 ml aqueous dilution of test compound. After 2 days mortality in % is determined 100% means that all the larvae have been killed; 0% means that none of the larvae have been killed.

The subject of another experiment is Ctenocephalides felis. The experiment is described as follows: Ctenocephalides felis test (CTECFE), blood feeding. Particulars: 48 h, read-out: activity (mortality in %). As to the method: as §1
To produce a suitable preparation of active compound, 10 mg of active compound are dissolved in 0.5 ml solvent, and the concentrate is diluted with cattle blood to the desired concentration. Approximately 10 to 15 adult unfed (Ctenocepahlides felis) are placed in flea chambers. The blood chamber, are sealed with parafilm on the bottom are filled with cattle blood supplied with compound solution and placed on top of the flea chamber, so that the fleas are able to suck the blood. The blood chamber is heated to 37° C. whereas the flea chamber is kept at room temperature. After 2 days mortality in % is determined 100% means that all the fleas have been killed; 0% means that none of the fleas have been killed.

For a further experiment, the system named is Boophilus microplus. The experiment is described as follows: Boophilus microplus test (injection). Particulars: application rate 20 μg/animal, adult engorged females, after 7 days. The essentials: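 Compound dissolved and diluted in DMSO, then injected into the abdomen of adult engorged female ticks, five per dose. Ticks held in a climate chamber and fertile egg deposition monitored. Read at 7 days as %, 100% = all eggs infertile, 0% = all fertile.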

In the next experiment the test system is Musca domestica. In words: Musca domestica test (sugar sponge). The note with it: Musca domestica, 48 h, read-out: activity (mortality in %). As to the method: as §1
To produce a suitable preparation of active compound, 10 mg of active compound are dissolved in 0.5 ml solvent, and the concentrate is diluted with water to the desired concentration. Prior to the assay, a piece or kitchen sponge is soaked with a mixture of sugar and compound solution and placed into a container. 10 adults (Musca domestica) are placed into the container and closed with a perforated lid. After 2 days mortality in % is determined. 100% means that all the flies have been killed; 0% means that none of the flies have been killed.

In experiment [1] the test system is organic phosphorus agent- and carbamate agent-resistant Myzus persicae. In words: Test for organic phosphorus agent- and carbamate agent-resistant Myzus persicae (spray, eggplant). Particulars: 100 ppm active ingredient, 7 days. As to the method:
If not mentioned otherwise, all sample solutions were prepared as described in Biological Test Example 1 and diluted to the appropriate (predetermined) concentrations.
About 30 to 50 of grown organic phosphorus agent- and carbamate agent-resistant Myzus persicae per seedling were inoculated to leaves at 2-leaf stage of eggplants grown in a pot of 6 cm in diameter, to which, after 1 day from the inoculation, the above prepared water-diluted solution of above active compound of the predetermined concentration was sufficiently sprayed with a spray gun. After the spraying, the pot was left in a greenhouse at room temperature for 7 days, followed by the pest-controlling rate calculated. The test was repeated twice.

In the next experiment the test system is Amblyomma hebraeum. In words: Amblyomma hebraeum test (AMBYHE), nymph immersion. Particulars: comparison with WO2008/128711. As to the method: as §1
To produce a suitable preparation of active compound, 10 mg of active compound are dissolved in 0.5 ml solvent, and the concentrate is diluted with water to the desired concentration. Nymphs of the tick Amblyomma hebraeum are placed in perforated plastic beakers and immersed in aqueous compound solution for one minute. Ticks are transferred to a filter paper in a Petri dish and incubated in a climate chamber for 42 days.
After 42 days mortality in % is determined 100% means that all the ticks have been killed; 0% means that none of the ticks have been killed.

The structures appear in SMILES notation.

In general, mortality refers to the share of the test organisms that died. For the compound `O=C(NCc1ccc(N2CCC(c3cc(Cl)cc(Cl)c3)(C(F)(F)F)C2)cc1C(F)(F)F)c1ccc(Cl)nc1` (stereo not shown) [1-198, 6-chloro-N-{4-[3-(3,5-dichlorophenyl)-3-(trifluoromethyl)-pyrrolidin-1-yl]-2-(trifluoromethyl)benzyl}pyridine-3-carboxyamide], the mortality at 100 ppm in the experiment with Lucilia cuprina larvae came out at 100%; with Ctenocephalides felis, 90%. The “activity (100% means that all eggs are infertile)” value in the experiment on Boophilus microplus is given as 100%.
As to `CCC(=O)NCc1sc(N2CCC(c3cc(Cl)c(Cl)c(Cl)c3)(C(F)(F)F)C2)nc1C(F)(F)F` (stereo not shown) [5-142, N-({2-[3-(3,4,5-trichlorophenyl)-3-(trifluoromethyl)pyrrolidin-1-yl]-4-(trifluoromethyl)-1,3-thiazol-5-yl}methyl)propanamide], the mortality at 100 ppm in the experiment with Lucilia cuprina larvae, with Ctenocephalides felis and in the experiment with Musca domestica was 100% throughout. Besides, the “activity (100% means that all eggs are infertile)” value with Boophilus microplus is 100%.
In the case of `CCC(=O)NCc1ccc(N2CCC(c3cc(Cl)cc(Cl)c3)(C(F)(F)F)C2)cc1C(F)(F)F` (stereo not shown) [1-143], in experiment [1], the “insecticidal rate (pest-controlling rate)” value worked out at 100%. Moreover, the “activity (100% means that all eggs are infertile)” value with Boophilus microplus came to 100%. Also, the “Activity at 0.8 ppm” value in the experiment on Amblyomma hebraeum (0.8 ppm) was determined as 100%. In addition, the “Activity at 4 ppm” value in the experiment with Amblyomma hebraeum (4 ppm) worked out at 100%.
Consider `CCC(=O)NCc1cnc(N2CCC(c3cc(Cl)c(Cl)c(Cl)c3)(C(F)(F)F)C2)nc1C(F)(F)F` (stereo not shown) [3-142], for which, in experiment [1], the “insecticidal rate (pest-controlling rate)” value turned out to be 100%. For the same compound, in the experiment on Boophilus microplus, the “activity (100% means that all eggs are infertile)” value is on record as 100%.
